≈ marks a conversion by molar mass, not a printed value.
Key:
Format in all cases: cell-based
C. perfringens KYA 13123 = assay: microbe, parasite or virus in culture; details: Clostridium perfringens, KYA13123
E. coli ATCC 10536 = assay: Antibacterial spectra, MIC; details: Escherichia coli, ATCC10536
Bacilus subtilis PCI 219 = assay: Antibacterial spectra, MIC; details: Bacillus subtilis, PCI219
Pst. micros UPI 5464-1 = assay: Antibacterial spectra, MIC; details: Parvimonas micra, UPI54641
[1] = system: Propionibacterium acens 11828; assay: Antibacterial spectra, MIC; details: 10^6 cells/ml, Gram +, read-out: MIC
[2] = system: S. aureus IID 670 (Terajima); assay: Antibacterial spectra, MIC; details: Staphylococcus aureus, IID670
[3] = system: Citrobacter freundii IID 976; assay: Antibacterial spectra, MIC; details: IID976
P. aeruginosa IID 1210 = assay: Antibacterial spectra, MIC; details: Pseudomonas aeruginosa, IID1210
P. maltophilia GIFU 2491 = assay: Antibacterial spectra, MIC; details: Stenotrophomonas maltophilia, GIFU2491
[4] = system: Alcaligenes faecalis 0114002; assay: Antibacterial spectra, MIC
F. necrophorum S-45 = assay: Antibacterial spectra, MIC; details: Fusobacterium necrophorum, S45
[5] = system: Morganella morganii IID 602; assay: Antibacterial spectra, MIC; details: IID602
K. pneumoniae 1-220S = assay: Antibacterial spectra, MIC; details: Klebsiella pneumoniae, 1220S
[6] = system: Peptococcus magnus KY 017; assay: Antibacterial spectra, MIC; details: Finegoldia magna, KY017
C. ramosum = assay: Antibacterial spectra, MIC; details: Thomasclavelia ramosa
S. pyogenes IID 692 = assay: Antibacterial spectra, MIC; details: Streptococcus pyogenes, IID692
[7] = system: Acinetobacter anitratus IID 876; assay: Antibacterial spectra, MIC; details: Acinetobacter calcoaceticus, IID876
[8] = system: Eubacterium lentum GAI 5242; assay: Antibacterial spectra, MIC; details: Eggerthella lenta, GAI5242
B. fragilis 25285 = assay: Antibacterial spectra, MIC; details: Bacteroides fragilis
B. vulgatus KYA 29327 = assay: Antibacterial spectra, MIC; details: Phocaeicola vulgatus, KYA29327
[9] = system: Serratia marcescens IID 618; assay: Antibacterial spectra, MIC; details: IID618
[10] = system: Bacteroides fragilis GM 7000; assay: Antibacterial spectra, MIC; details: GM7000
[11] = system: Veillonella parvula KYA 10790; assay: Antibacterial spectra, MIC; details: KYA10790
[12] = system: Escherichia coli NIHJ JC-2; assay: Antibacterial spectra, MIC; details: NIHJJC2
[13] = system: Clostridium difficile I-E; assay: Antibacterial spectra, MIC; details: Clostridioides difficile
[14] = system: Yersinia enterocolitica IID 981; assay: Antibacterial spectra, MIC; details: IID981
S. pneumoniae IID 552 = assay: Antibacterial spectra, MIC; details: Streptococcus pneumoniae, IID552
P. mirabilis IID 994 = assay: Antibacterial spectra, MIC; details: Proteus mirabilis, IID994
S. aureus Smith = assay: Antibacterial spectra, MIC; details: Staphylococcus aureus
S. epidermidis IID 866 = assay: Antibacterial spectra, MIC; details: Staphylococcus epidermidis, IID866
[15] = system: Staphylococcus aureus 209 P; assay: Antibacterial spectra, MIC
[16] = system: Peptostreptococcus anaerobius KYA 27337; assay: Antibacterial spectra, MIC; details: KYA27337
[17] = system: Salmonella enteritidis IID 604; assay: Antibacterial spectra, MIC; details: Salmonella enterica
F. varium KYA 8501 = assay: Antibacterial spectra, MIC; details: Fusobacterium varium, KYA8501; 10^6 cells/ml; Gram -; read-out: MIC
E. coli ML 4707 = assay: Antibacterial spectra, MIC; details: Escherichia coli, ML4707; 10^6 cells/ml; Gram -
Experimental: (§1) The antibacterial test was carried out according to the method designated by Japan Society of Chemotherapy.

Shigella sonnei IID 969 = assay: Antibacterial spectra, MIC; details: IID969, 10^6 cells/ml, Gram -
Experimental: as §1

[18] = system: Streptococcus pyogenes (S-8); assay: Antibacterial spectra, MIC; details: 10^6 cells/ml, Gram +
Experimental: as §1

[19] = system: Proteus vulgaris IFO 3167; assay: Antibacterial spectra, MIC; details: IFO3167, 10^6 cells/ml, Gram -
Experimental: as §1

E. faecalis IID 682 = assay: Antibacterial spectra, MIC; details: Enterococcus faecalis, IID682; 10^6 cells/ml; Gram +
Experimental: as §1

[20] = system: B. thetaiotaomicron (0661); assay: Antibacterial spectra, MIC; details: Bacteroides thetaiotaomicron
P. aeruginosa IFO 12689 = assay: Antibacterial spectra, MIC; details: Pseudomonas aeruginosa, IFO12689
[21] = system: Enterobacter cloacae IID 977; assay: Antibacterial spectra, MIC; details: IID977
P. cepacia GIFU 518 = assay: Antibacterial spectra, MIC; details: Burkholderia cepacia, GIFU518
[22] = system: Fusobacterium mortiferum 4249; assay: Antibacterial spectra, MIC
B. fragilis 0558 = assay: Antibacterial spectra, MIC; details: Bacteroides fragilis
B. distasonis 8503 = assay: Antibacterial spectra, MIC; details: Parabacteroides distasonis
[23] = system: Klebsiella pneumoniae KY(GN)6445; assay: Antibacterial spectra, MIC
[24] = system: Pseudomonas aeruginosa V-1; assay: Antibacterial spectra, MIC; details: V1

## COc1c(N2CCC(N)C2)c(F)cc2c(=O)c(C(=O)O)cn(C3CC3)c12 (stereo not drawn) [Exp. 4, 7-(3-amino-1-pyrrolidinyl)-1-cyclopropyl-6-fluoro-1,4-dihydro-8-methoxy-4-oxo-3-quinolinecarboxylic acid]
C. perfringens KYA 13123
  MIC: 0.2 µg/mL (≈ 0.553 µM)
E. coli ATCC 10536
  MIC: 0.025 µg/mL (≈ 0.0692 µM)
Bacilus subtilis PCI 219
  MIC: 0.025 µg/mL (≈ 0.0692 µM)
Pst. micros UPI 5464-1
  MIC: 0.2 µg/mL (≈ 0.553 µM)
[1]
  MIC: 1.56 µg/mL (≈ 4.32 µM)
[2]
  MIC: 0.05 µg/mL (≈ 0.138 µM)
[3]
  MIC: 0.05 µg/mL (≈ 0.138 µM)
P. aeruginosa IID 1210
  MIC: 0.39 µg/mL (≈ 1.08 µM)
P. maltophilia GIFU 2491
  MIC: 0.1 µg/mL (≈ 0.277 µM)
[4]
  MIC: 0.39 µg/mL (≈ 1.08 µM)
F. necrophorum S-45
  MIC: 0.2 µg/mL (≈ 0.553 µM)
[5]
  MIC: 0.05 µg/mL (≈ 0.138 µM)
K. pneumoniae 1-220S
  MIC: 0.05 µg/mL (≈ 0.138 µM)
[6]
  MIC: 0.1 µg/mL (≈ 0.277 µM)
C. ramosum
  MIC: 0.78 µg/mL (≈ 2.16 µM)
S. pyogenes IID 692
  MIC: 0.1 µg/mL (≈ 0.277 µM)
[7]
  MIC: 0.05 µg/mL (≈ 0.138 µM)
[8]
  MIC: 0.1 µg/mL (≈ 0.277 µM)
B. fragilis 25285
  MIC: 0.1 µg/mL (≈ 0.277 µM)
B. vulgatus KYA 29327
  MIC: 0.39 µg/mL (≈ 1.08 µM)
[9]
  MIC: 0.05 µg/mL (≈ 0.138 µM)
[10]
  MIC: 0.2 µg/mL (≈ 0.553 µM)
[11]
  MIC: 0.2 µg/mL (≈ 0.553 µM)
[12]
  MIC: 0.0125 µg/mL (≈ 0.0346 µM)
[13]
  MIC: 0.39 µg/mL (≈ 1.08 µM)
[14]
  MIC: 0.05 µg/mL (≈ 0.138 µM)
S. pneumoniae IID 552
  MIC: 0.1 µg/mL (≈ 0.277 µM)
P. mirabilis IID 994
  MIC: 0.05 µg/mL (≈ 0.138 µM)
S. aureus Smith
  MIC: 0.05 µg/mL (≈ 0.138 µM)
S. epidermidis IID 866
  MIC: 0.1 µg/mL (≈ 0.277 µM)
[15]
  MIC: 0.05 µg/mL (≈ 0.138 µM)
[16]
  MIC: 0.2 µg/mL (≈ 0.553 µM)
[17]
  MIC: 0.05 µg/mL (≈ 0.138 µM)
F. varium KYA 8501
  MIC: 1.56 µg/mL (≈ 4.32 µM)
E. coli ML 4707
  MIC: 0.025 µg/mL (≈ 0.0692 µM)
Shigella sonnei IID 969
  MIC: 0.025 µg/mL (≈ 0.0692 µM)
[18]
  MIC: 0.05 µg/mL
[19]
  MIC: 0.025 µg/mL (≈ 0.0692 µM)
E. faecalis IID 682
  MIC: 0.1 µg/mL
[20]
  MIC: 0.2 µg/mL (≈ 0.553 µM)
P. aeruginosa IFO 12689
  MIC: 0.39 µg/mL (≈ 1.08 µM)
[21]
  MIC: 0.05 µg/mL (≈ 0.138 µM)
P. cepacia GIFU 518
  MIC: 0.39 µg/mL (≈ 1.08 µM)
[22]
  MIC: 0.2 µg/mL (≈ 0.553 µM)
B. fragilis 0558
  MIC: 0.1 µg/mL (≈ 0.277 µM)
B. distasonis 8503
  MIC: 0.78 µg/mL (≈ 2.16 µM)
[23]
  MIC: 0.05 µg/mL (≈ 0.138 µM)
[24]
  MIC: 0.39 µg/mL (≈ 1.08 µM)

Reference: US5043450A, “8-alkoxyquinolonecarboxylic acid and salts thereof” (priority 1986, dated 1991)
